From patent US6737383B1, “Herbicidal oxadiazolidines” (priority 1999, dated 2004)

Experiments:
[1] = test system: blackgrass; experiment: Test B pre/postemergence blackgrass; type: in vivo, Alopecurus myosuroides
Procedure, shortened: (§1)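 Herbicidal effect was estimated by eye on a ten-point control scale after plants spent twelve to sixteen days in a greenhouse following soil or foliar treatment. Foliar sprays targeted plants at one to four leaves; all doses were formulated in a non-phytotoxic solvent with surfactant.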

[2] = test system: morningglory; experiment: Test B pre/postemergence morningglory; type: in vivo, Ipomoea hederacea
Procedure, shortened: as §1

[3] = test system: purple nutsedge; experiment: Test B pre/postemergence purple nutsedge; type: in vivo, Cyperus rotundus
Procedure, shortened: as §1

[4] = test system: rice; experiment: Test B flood test rice; type: in vivo, Oryza sativa
Procedure, shortened: (§2)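 Each value is a visual injury score relative to controls, with 10 meaning complete control and 0 no effect. Evaluation took place twelve to sixteen days after the 2-leaf-stage plants were treated and kept in the greenhouse.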

[5] = test system: surinam grass; experiment: Test B pre/postemergence surinam grass; type: in vivo, Brachiaria decumbens
Procedure, shortened: as §1

[6] = test system: bamyardgrass; experiment: Test B flood test barnyardgrass; type: in vivo, Echinochloa crus-galli
Procedure, shortened: as §2

[7] = test system: cocklebur; experiment: Test B pre/postemergence cocklebur; type: in vivo, Xanthium strumarium
Procedure, shortened: as §1

[8] = test system: wheat; experiment: Test B pre/postemergence wheat; type: in vivo, Triticum aestivum
Procedure, shortened: as §1

[9] = test system: sugar beet; experiment: Test B pre/postemergence sugar beet; type: in vivo, Beta vulgaris
Procedure, shortened: as §1

[10] = test system: bedstraw; experiment: Test B pre/postemergence bedstraw; type: in vivo, Galium aparine
Procedure, shortened: as §1

[11] = test system: velvetleaf; experiment: Test B pre/postemergence velvetleaf; type: in vivo, Abutilon theophrasti
Procedure, shortened: as §1

[12] = test system: pigweed; experiment: Test B pre/postemergence pigweed; type: in vivo, Amaranthus retroflexus
Procedure, shortened: as §1

[13] = test system: crabgrass; experiment: Test B pre/postemergence crabgrass; type: in vivo, Digitaria sanguinalis
Procedure, shortened: as §1

[14] = test system: giant foxtail; experiment: Test B pre/postemergence giant foxtail; type: in vivo, Setaria faberii
Procedure, shortened: as §1

[15] = test system: wild oat; experiment: Test B pre/postemergence wild oat; type: in vivo, Avena fatua
Procedure, shortened: as §1

[16] = test system: duck salad; experiment: Test B flood test duck salad; type: in vivo, Heteranthera limosa
Procedure, shortened: as §2

[17] = Postemergence, Rate 62 g/ha, scale 0 to 10, 0 is no effect, 10 is complete control
[18] = Postemergence, Rate 250 g/ha, scale 0 to 10, 0 no effect, 10 complete control
[19] = Preemergence, Rate 62 g/ha, scale 0 to 10 (0 no effect, 10 complete control)
[20] = Preemergence, Rate 125 g/ha, scale 0 to 10 (0 no effect, 10 complete control)
[21] = Preemergence, Rate 250 g/ha, scale of 0 to 10 where 0 is no effect and 10 is complete control
[22] = Preemergence, Rate 500 g/ha, scale 0 (no effect) to 10 (complete control)
[23] = Rate 125 g/ha, Postemergence, scale 0 to 10, 0 no effect, 10 complete control
[24] = Rate 500 g/ha, Postemergence, scale 0 to 10, 0 no effect, 10 complete control
[25] = Rate 62 g/ha, headed Pre-emergence (flood test species), scale 0 to 10 (0 no effect, 10 complete control)
[26] = Rate 125 g/ha, Pre-emergence, flood test species, scale 0 to 10 where 0 is no effect and 10 is complete control
[27] = Rate 250 g/ha, headed Pre-emergence (flood test species), scale 0 to 10 (0 no effect, 10 complete control)
[28] = Rate 500 g/ha, headed Pre-emergence (flood test species), scale 0 to 10 (0 no effect, 10 complete control)

CCN(Cc1ccccc1)C(=O)n1oc(=O)n(-c2ccccc2C)c1=O [Compound 71]
0: Blackgrass plant response rating [1, 17] | Blackgrass plant response rating [1, 18] | Blackgrass plant response rating [1, 19] | Plant response rating, Blackgrass [1, 20] | Plant response rating, Blackgrass [1, 21] | Blackgrass plant response rating [1, 22] | Blackgrass plant response rating [1, 23] | Blackgrass plant response rating [1, 24] | Morningglory plant response rating [2, 17] | Morningglory plant response rating [2, 18] | Morningglory plant response rating [2, 19] | Plant response rating, Morningglory [2, 20] | Plant response rating, Morningglory [2, 21] | Morningglory plant response rating [2, 22] | Morningglory plant response rating [2, 23] | Morningglory plant response rating [2, 24] | Nutsedge plant response rating [3, 17] | Nutsedge plant response rating [3, 18] | Nutsedge plant response rating [3, 19] | Plant response rating, Nutsedge [3, 20] | Plant response rating, Nutsedge [3, 21] | Nutsedge plant response rating [3, 22] | Nutsedge plant response rating [3, 23] | Nutsedge plant response rating [3, 24] | Rice plant response rating [4, 25] | Rice plant response rating [4, 26] | Rice plant response rating [4, 27] | Plant response rating, Rice [4, 28] | B. signalgrass plant response rating [5, 17] | B. signalgrass plant response rating [5, 18] | B. signalgrass plant response rating [5, 19] | Plant response rating, B. signalgrass [5, 20] | Plant response rating, B. signalgrass [5, 21] | B. signalgrass plant response rating [5, 22] | B. signalgrass plant response rating [5, 23] | B. signalgrass plant response rating ([5]; Rate 500 g/ha, Postemergence, scale of 0 to 10 where 0 is no effect and 10 is complete control) | Barnyardgrass plant response rating [6, 25] | Barnyardgrass plant response rating [6, 26] | Barnyardgrass plant response rating [6, 27] | Plant response rating, Barnyardgrass [6, 28] | Cocklebur plant response rating [7, 17] | Cocklebur plant response rating [7, 18] | Cocklebur plant response rating [7, 19] | Plant response rating, Cocklebur [7, 20] | Plant response rating, Cocklebur [7, 21] | Cocklebur plant response rating [7, 22] | Cocklebur plant response rating [7, 23] | Cocklebur plant response rating [7, 24] | Wheat plant response rating [8, 17] | Wheat plant response rating [8, 18] | Wheat plant response rating [8, 19] | Plant response rating, Wheat [8, 20] | Plant response rating, Wheat [8, 21] | Wheat plant response rating [8, 22] | Wheat plant response rating [8, 23] | Wheat plant response rating [8, 24] | Sugarbeets plant response rating [9, 17] | Sugarbeets plant response rating [9, 18] | Sugarbeets plant response rating [9, 19] | Plant response rating, Sugarbeets [9, 20] | Plant response rating, Sugarbeets [9, 21] | Sugarbeets plant response rating [9, 22] | Sugarbeets plant response rating [9, 23] | Sugarbeets plant response rating [9, 24] | Bedstraw plant response rating [10, 17] | Bedstraw plant response rating [10, 18] | Bedstraw plant response rating [10, 19] | Plant response rating, Bedstraw [10, 20] | Plant response rating, Bedstraw [10, 21] | Bedstraw plant response rating [10, 22] | Bedstraw plant response rating [10, 23] | Bedstraw plant response rating [10, 24] | Velvetleaf plant response rating [11, 17] | Velvetleaf plant response rating [11, 18] | Velvetleaf plant response rating [11, 19] | Plant response rating, Velvetleaf [11, 20] | Plant response rating, Velvetleaf [11, 21] | Velvetleaf plant response rating [11, 22] | Velvetleaf plant response rating [11, 23] | Velvetleaf plant response rating [11, 24] | Redroot pigweed plant response rating [12, 17] | Redroot pigweed plant response rating [12, 18] | Redroot pigweed plant response rating [12, 19] | Plant response rating, Redroot pigweed [12, 20] | Plant response rating, Redroot pigweed [12, 21] | Redroot pigweed plant response rating [12, 22] | Redroot pigweed plant response rating [12, 23] | Redroot pigweed plant response rating [12, 24] | Crabgrass plant response rating [13, 17] | Crabgrass plant response rating [13, 18] | Crabgrass plant response rating [13, 19] | Plant response rating, Crabgrass [13, 20] | Plant response rating, Crabgrass [13, 21] | Crabgrass plant response rating [13, 22] | Crabgrass plant response rating [13, 23] | Crabgrass plant response rating [13, 24] | Giant foxtail plant response rating [14, 17] | Giant foxtail plant response rating [14, 18] | Giant foxtail plant response rating [14, 19] | Plant response rating, Giant foxtail [14, 20] | Plant response rating, Giant foxtail [14, 21] | Giant foxtail plant response rating [14, 22] | Giant foxtail plant response rating [14, 23] | Giant foxtail plant response rating [14, 24] | Wild oats plant response rating [15, 17] | Wild oats plant response rating [15, 18] | Wild oats plant response rating [15, 19] | Plant response rating, Wild oats [15, 20] | Plant response rating, Wild oats [15, 21] | Wild oats plant response rating [15, 22] | Wild oats plant response rating [15, 23] | Wild oats plant response rating [15, 24] | Ducksalad plant response rating [16, 25] | Ducksalad plant response rating [16, 26] | Ducksalad plant response rating [16, 27] | Plant response rating, Ducksalad [16, 28]
